Laboratory results as given in patent publication US20090176696A1, “Methods And Compositions For Modulating An Immune Response” (priority 2006, published 2009).

Legend:
[1] = system: KLH-specific T cell responses; experiment: Adoptive transfer of TCT-treated DCs; ex vivo lymph node T cell responses; assay type: in vivo, BALB/c mice
Method: Bone marrow-derived DCs from BALB/c mice were cultured in 2% heat inactivated normal mouse sera and 40 ng/ml recombinant GM-CSF for 12 days. DCs were harvested and cultured O/N at a concentration of 1×10^6 cells/ml. DCs were then incubated with KLH (20 μg/ml) alone, KLH (20 μg/ml) and TCT (10 μg/ml), KLH (20 μg/ml) plus Pam-3Csk (TLR2 agonist; 500 ng/ml), or with KLH (20 μg/ml) and TCT (10 μg/ml) and Pam-3Csk (500 ng/ml). After 2 hours incubation, cells were washed and injected sub-cutaneously (s.c.) into the flank of BALB/c mice (1×10^5 cells/mouse). T cell responses were assessed 14 days later from pooled local inguinal lymph node cells stimulated with antigen ex-vivo.
Lymph node cells from each treatment group were pooled and cultured in the presence of KLH (2, 10 and 50 μg/ml) or PMA/CD3 or medium, as positive and negative controls respectively. Supernatants were collected 72 h later for cytokine analysis (IFN-γ, IL-10, IL-4 and IL-5 were evaluated by specific ELISA FIG. 12). Fresh medium was added to the wells and cells were incubated overnight. At day 4, 2 μCi of ^3H thymidine was added to each well. Plates were incubated for a further 6 hours, after which cells and ^3H incorporation was determined (FIG. 12).

murine NOD1 = target: T1, murine NOD1 (Mus musculus, UniProt Q8BHB0); conditions: cited from earlier work
T1 sequence (Q8BHB0 1-953): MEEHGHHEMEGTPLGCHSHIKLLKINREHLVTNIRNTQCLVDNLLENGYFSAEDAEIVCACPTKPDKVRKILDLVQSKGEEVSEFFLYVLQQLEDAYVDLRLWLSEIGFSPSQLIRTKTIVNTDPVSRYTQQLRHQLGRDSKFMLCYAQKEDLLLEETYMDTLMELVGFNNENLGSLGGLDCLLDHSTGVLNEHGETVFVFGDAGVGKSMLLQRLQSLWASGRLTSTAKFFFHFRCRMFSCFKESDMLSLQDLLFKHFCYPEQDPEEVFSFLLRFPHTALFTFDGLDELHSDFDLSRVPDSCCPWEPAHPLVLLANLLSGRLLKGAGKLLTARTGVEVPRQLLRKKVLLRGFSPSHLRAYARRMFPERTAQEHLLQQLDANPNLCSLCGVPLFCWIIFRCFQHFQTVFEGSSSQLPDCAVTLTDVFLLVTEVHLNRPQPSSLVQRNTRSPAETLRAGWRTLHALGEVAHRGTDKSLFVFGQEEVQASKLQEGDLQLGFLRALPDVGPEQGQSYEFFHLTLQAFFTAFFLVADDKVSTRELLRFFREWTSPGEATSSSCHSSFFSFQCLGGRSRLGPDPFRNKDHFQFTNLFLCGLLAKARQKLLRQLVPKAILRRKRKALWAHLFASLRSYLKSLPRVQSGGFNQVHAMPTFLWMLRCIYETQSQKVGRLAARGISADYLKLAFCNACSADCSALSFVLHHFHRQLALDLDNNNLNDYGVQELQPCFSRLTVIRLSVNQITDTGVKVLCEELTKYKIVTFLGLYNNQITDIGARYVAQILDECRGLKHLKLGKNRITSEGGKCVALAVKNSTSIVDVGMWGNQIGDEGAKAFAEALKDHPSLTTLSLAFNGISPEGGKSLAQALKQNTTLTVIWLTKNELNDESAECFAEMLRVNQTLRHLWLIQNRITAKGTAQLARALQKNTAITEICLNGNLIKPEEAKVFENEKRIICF

Bone marrow-derived DCs = experiment: Surface expression of MHC Class II and costimulatory molecules on DCs by immunofluorescence analysis; assay type: cell-based, BALB/c mice
Method: Bone marrow-derived DCs from BALB/c mice were cultured for 6 hours with (i) TCT (10 μg/ml) or medium alone, then stimulated with B. pertussis LPS at (ii) 10 ng/ml and (iii) 100 ng/ml for a further 12 hours and analysed for surface expression of MHC Class II and costimulatory molecules by immunofluorescence analysis with Abs specific for MHC Class II (a), CD86 (b), and ICAM-1 (c). (FIG. 5).

[2] = system: cultured hamster respiratory epithelia; conditions: B. pertussis TCT; cited from earlier work
[3] = system: hamster tracheal epithelial (HTE) cells; conditions: isolated cultured HTE cells; cited from earlier work
[4] = system: Graft-versus-host disease (GVHD); experiment: Parent-to-F1 hybrid graft-versus-host disease (GVHD) model; assay type: in vivo, BALB/c×C57Bl/6 F1 hybrid mice; conditions: TCT 10 μg/mouse s.c. footpad 2 hours prior to induction; day 7
Source text: Graft-versus-host disease (GVHD) is a major life-threatening complication of bone marrow transplantation, where T cells from the donor graft attack host cells leading to a condition that is only treatable using potent immunosuppressive drugs. It is possible to examine the potential of therapies for the prevention or treatment of GVHD in humans by testing their efficacy using a simple GVHD model in mice. The parent-to-F1 hybrid GVHD murine model involves the transfer of parental lymphocytes into non-conditioned F1 hybrid mice. Using this strain combination the host T cells cannot actively resist the donor cells.
GVHD was induced by transfer of 0.5×10^7 spleen cells from donor C57BL/6 mice into the footpads of BALB/c×C57Bl/6 F1 hybrid mice. Recipient mice were injected s.c into the footpad with PBS or TCT (10 μg/mouse) 2 hours prior to induction of GVHD. After 7 days, the popliteal lymph nodes were removed, weighed and cell numbers were recorded.

[5] = DCs treated with KLH and Pam-3Csk, also treated with TCT
[6] = KLH treated DCs also treated with TCT

CC(=O)NC1C(OC2C3COC(O3)C(NC(C)=O)C2OC(C)C(=O)NC(C)C(=O)NC(CCC(=O)NC(CCCC(N)C(=O)NC(C)C(=O)O)C(=O)O)C(=O)O)OC(CO)C(O)C1O (centres unmarked) [TCT, N-acetylglucosaminyl-1,6-anhydro-N-acetylmuramylalanyl-γ-glutamyldiaminopimelylalanine]
antigen-specific IFN-gamma production, lymph node cells [1, 5]: completely abolished
antigen-specific IL-10 production, lymph node cells [1, 5]: completely abolished
KLH-specific IFN-gamma production, lymph node cells ([1]; DCs treated with TCT and KLH): No KLH-specific IFN-gamma, IL-10 and IL-4 production was detected
KLH-specific proliferation by lymph node cells ([1]; DCs treated with TCT and Pam-3Csk with KLH vs Pam-3Csk with KLH): profound impairment
antigen-specific IL-4 production, lymph node cells [1, 6]: abolished
antigen-specific IL-10 production, lymph node cells [1, 6]: abolished
proliferation by lymph node cells ([1]; KLH treated DCs also treated with TCT vs KLH treated DCs alone): almost abolished
Antigen-specific IL-5 production, LN cells ([1]; all treatment groups): not above background concentrations
NOD1 detection of TCT (murine NOD1): did so effectively
B. pertussis LPS induced expression of the other costimulatory molecules (CD86, ICAM-1) (Bone marrow-derived DCs; 6 hours TCT pre-treatment): did not modulate
MHC Class II expression induced with B. pertussis LPS (Bone marrow-derived DCs; LPS 10 or 100 ng/ml, 6 hours TCT pre-treatment): reduced
MHC Class II expression on DCs (Bone marrow-derived DCs; TCT (10 μg/ml) alone): did not influence
co-stimulatory molecule expression on DCs (Bone marrow-derived DCs; TCT (10 μg/ml) alone): did not influence
ciliostasis and ciliated cell destruction [2]: causes ciliostasis, ciliated cell destruction
DNA synthesis [3]: inhibit DNA synthesis
total cells counts in the lymph node of the recipient mice [4]: significantly reduced
weight of the lymph node of the recipient mice [4]: significantly reduced
